Assay results published in ChEMBL document CHEMBL2311262, “Structure activity relationship studies of tricyclic bispyran sulfone γ-secretase inhibitors” (Bioorg Med Chem Lett, 2013).

Key:
Gamma-secretase [1] = experiment: Inhibition of gamma secretase-mediated amyloid beta40 production in HEK293 cell membranes transfected with human APPSOW and APPLON mutant after 5 hrs by sandwich immunoassay; format: cell-based
Gamma-secretase [2] = experiment: Inhibition of gamma secretase-mediated amyloid beta42 production in HEK293 cells transfected with human APPSOW and APPLON after 5 hrs by sandwich immunoassay; format: cell-based
Gamma-secretase [3] = experiment: Inhibition of gamma secretase-mediated amyloid beta40 production in HEK293 cells transfected with human APPSOW and APPLON after 5 hrs by sandwich immunoassay; format: cell-based
Homo sapiens = organism: Homo sapiens; experiment: Selectivity ratio of inhibition of PS2 (unknown origin) to inhibition of PS1 (unknown origin)
[4] = Ratio of drug level in brain to plasma in rat at 6 hrs; format: ADME; conditions: read-out: BPR
Mus musculus [5] = experiment: Inhibition of gamma secretase in B6C3F1 mouse assessed as […] in plasma amyloid beta40 production at 10 mg/kg, po measured at 3 hrs; format: functional
[6] = Volume of distribution at steady state in dog at 2.5 mg/kg, iv; format: ADME, organism-based, Canis lupus familiaris; set-up: dose 2.5 mg/kg, route intravenous; conditions: in vivo, read-out: Vdss
[7] = Volume of distribution at steady state in rat at 5 mg/kg, iv; format: ADME, organism-based; set-up: dose 5 mg/kg, route intravenous; conditions: in vivo, read-out: Vdss
[8] = Volume of distribution at steady state in monkey at 2.5 mg/kg, iv; format: ADME, organism-based, Macaca mulatta; set-up: dose 2.5 mg/kg, route intravenous; conditions: rhesus monkey, in vivo, read-out: Vdss
[9] = Clearance in monkey at 2.5 mg/kg, iv; format: ADME, organism-based, Macaca mulatta; set-up: dose 2.5 mg/kg, route intravenous; conditions: rhesus monkey, in vivo
[10] = Clearance in dog at 2.5 mg/kg, iv; format: ADME, organism-based, Canis lupus familiaris; set-up: dose 2.5 mg/kg, route intravenous; conditions: in vivo
[11] = Clearance in rat at 5 mg/kg, iv; format: ADME, organism-based; set-up: dose 5 mg/kg, route intravenous; conditions: in vivo
[12] = Oral bioavailability in dog at 10 mg/kg; format: ADME, organism-based, Canis lupus familiaris; conditions: in vivo
[13] = Oral bioavailability in rat at 10 mg/kg; format: ADME, organism-based; conditions: in vivo
[14] = Oral bioavailability in monkey at 10 mg/kg; format: ADME, organism-based, Macaca mulatta; conditions: rhesus monkey, in vivo
[15] = Half life in dog at 10 mg/kg, po; format: ADME, organism-based, Canis lupus familiaris; set-up: dose 10 mg/kg, route oral; conditions: in vivo
[16] = Half life in monkey at 10 mg/kg, po; format: ADME, organism-based, Macaca mulatta; set-up: dose 10 mg/kg, route oral; conditions: rhesus monkey, in vivo
[17] = Half life in rat at 10 mg/kg, po; format: ADME, organism-based; set-up: dose 10 mg/kg, route oral; conditions: in vivo
[18] = Tmax in dog at 10 mg/kg, po; format: ADME, organism-based, Canis lupus familiaris; set-up: dose 10 mg/kg, route oral; conditions: in vivo
[19] = Tmax in monkey at 10 mg/kg, po; format: ADME, organism-based, Macaca mulatta; set-up: dose 10 mg/kg, route oral; conditions: rhesus monkey, in vivo
[20] = Tmax in rat at 10 mg/kg, po; format: ADME, organism-based; set-up: dose 10 mg/kg, route oral; conditions: in vivo
[21] = Cmax in dog at 10 mg/kg, po; format: ADME, organism-based, Canis lupus familiaris; set-up: dose 10 mg/kg, route oral; conditions: in vivo
[22] = Cmax in rat at 10 mg/kg, po; format: ADME, organism-based; set-up: dose 10 mg/kg, route oral; conditions: in vivo
[23] = Cmax in monkey at 10 mg/kg, po; format: ADME, organism-based, Macaca mulatta; set-up: dose 10 mg/kg, route oral; conditions: rhesus monkey, in vivo
[24] = AUC (0 to infinity) in dog at 10 mg/kg, po; format: ADME, organism-based, Canis lupus familiaris; set-up: time infinity, dose 10 mg/kg, route oral; conditions: plasma
[25] = AUC (0 to infinity) in rat at 10 mg/kg, po; format: ADME, organism-based; set-up: time infinity, dose 10 mg/kg, route oral; conditions: plasma
[26] = AUC (0 to infinity) in monkey at 10 mg/kg, po; format: ADME, organism-based, Macaca mulatta; set-up: time infinity, dose 10 mg/kg, route oral; conditions: rhesus monkey, plasma
[27] = Inhibition of CYP450 (unknown origin); format: ADME, Homo sapiens
hERG (KCNH2) = hERG (KCNH2) (Homo sapiens, UniProt Q12809); experiment: Inhibition of human ERG at 10 uM by voltage clamp assay
Chain of hERG (KCNH2) (Q12809 whole entry, the tested form may be a part): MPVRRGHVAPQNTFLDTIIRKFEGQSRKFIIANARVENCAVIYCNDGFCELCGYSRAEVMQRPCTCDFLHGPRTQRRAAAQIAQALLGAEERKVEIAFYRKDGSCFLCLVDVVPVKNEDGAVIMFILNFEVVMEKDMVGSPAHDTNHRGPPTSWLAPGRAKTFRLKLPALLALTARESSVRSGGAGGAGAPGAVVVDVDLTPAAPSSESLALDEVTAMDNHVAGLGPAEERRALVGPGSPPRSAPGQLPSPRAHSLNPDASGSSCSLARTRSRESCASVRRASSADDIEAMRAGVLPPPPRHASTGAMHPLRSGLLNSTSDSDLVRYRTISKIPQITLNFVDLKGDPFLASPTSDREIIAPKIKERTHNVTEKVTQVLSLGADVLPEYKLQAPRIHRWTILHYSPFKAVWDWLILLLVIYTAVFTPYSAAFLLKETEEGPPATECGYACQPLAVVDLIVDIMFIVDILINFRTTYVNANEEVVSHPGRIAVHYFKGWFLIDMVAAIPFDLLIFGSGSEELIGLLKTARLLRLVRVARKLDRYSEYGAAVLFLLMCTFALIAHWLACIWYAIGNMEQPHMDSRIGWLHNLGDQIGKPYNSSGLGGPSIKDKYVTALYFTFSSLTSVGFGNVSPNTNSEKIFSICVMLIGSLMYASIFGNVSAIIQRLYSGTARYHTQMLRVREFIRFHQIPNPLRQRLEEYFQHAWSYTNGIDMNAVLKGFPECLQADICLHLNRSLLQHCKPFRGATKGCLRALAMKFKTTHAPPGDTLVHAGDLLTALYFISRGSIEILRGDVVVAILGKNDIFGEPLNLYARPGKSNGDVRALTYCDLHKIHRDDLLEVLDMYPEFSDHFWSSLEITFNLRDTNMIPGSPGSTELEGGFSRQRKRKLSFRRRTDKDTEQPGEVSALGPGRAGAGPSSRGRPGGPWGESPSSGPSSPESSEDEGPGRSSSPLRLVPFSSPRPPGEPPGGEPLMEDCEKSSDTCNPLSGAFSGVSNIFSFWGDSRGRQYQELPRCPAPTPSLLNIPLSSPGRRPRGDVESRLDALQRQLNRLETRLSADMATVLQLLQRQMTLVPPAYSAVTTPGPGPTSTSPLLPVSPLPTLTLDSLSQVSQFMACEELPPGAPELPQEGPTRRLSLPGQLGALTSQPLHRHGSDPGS

Gamma-secretase [28] = experiment: Inhibition of gamma secretase-mediated notch cleavage in HEK293 cells expressing human notch protein with truncated extracellular EGF repeat domain by sandwich immunoassay; format: cell-based
Rattus norvegicus [29] = experiment: Inhibition of gamma secretase in po dosed CD rat assessed as lowering of CSF amyloid beta40 production measured at 3 hrs; format: functional
Rattus norvegicus [30] = experiment: Inhibition of gamma secretase in po dosed CD rat assessed as lowering of cortex amyloid beta40 production measured at 3 hrs; format: functional
Mus musculus [31] = experiment: Inhibition of gamma secretase in po dosed B6C3F1 mouse assessed as lowering of plasma amyloid beta40 production measured at 3 hrs; format: functional
Mus musculus [32] = experiment: Inhibition of gamma secretase in po dosed B6C3F1 mouse assessed as lowering of cortex amyloid beta40 production measured at 3 hrs; format: functional
Rattus norvegicus [33] = experiment: Inhibition of gamma secretase in po dosed CD rat assessed as lowering of plasma amyloid beta40 production measured at 3 hrs; format: functional

SMILES: O=S(=O)(CCCO)CC[C@@H]1OCC[C@@]2(S(=O)(=O)c3ccc(Cl)cc3)c3c(F)ccc(F)c3OC[C@@H]12
- IC50 (Gamma-secretase [1]): 4.5 nM

SMILES: O=S(=O)(CC[C@@H]1OCC[C@@]2(S(=O)(=O)c3ccc(Cl)cc3)c3c(F)ccc(F)c3OC[C@@H]12)c1cnn[nH]1
- IC50 (Gamma-secretase [2]): 4.7 nM
- IC50 (Gamma-secretase [3]): 13 nM
- IC50 (Gamma-secretase [1]): 4.3 nM

SMILES: CS(=O)(=O)CC[C@@H]1OCC[C@@]2(S(=O)(=O)c3ccc(OCC(F)(F)F)cc3)c3c(F)ccc(F)c3OC[C@@H]12
- IC50 (Gamma-secretase [1]): 5100 nM

SMILES: CS(=O)(=O)CC[C@@H]1OCC[C@@]2(S(=O)(=O)c3ccc(C#N)c(C#N)c3)c3c(F)ccc(F)c3OC[C@@H]12
- IC50 (Gamma-secretase [2]): 120 nM
- IC50 (Gamma-secretase [3]): 400 nM
- IC50 (Gamma-secretase [1]): 580 nM

SMILES: O=S(=O)(CC[C@@H]1OCC[C@@]2(S(=O)(=O)c3ccc(Cl)cc3)c3c(F)ccc(F)c3OC[C@@H]12)C(F)(F)F
- IC50 (Gamma-secretase [2]): 4.4 nM
- IC50 (Gamma-secretase [3]): 13 nM
- IC50 (Gamma-secretase [1]): 7.4 nM

SMILES: CC(C)S(=O)(=O)CC[C@@H]1OCC[C@@]2(S(=O)(=O)c3ccc(Cl)cc3)c3c(F)ccc(F)c3OC[C@@H]12
- IC50 (Gamma-secretase [2]): 3 nM
- IC50 (Gamma-secretase [3]): 8 nM
- IC50 (Gamma-secretase [1]): 5.5 nM

SMILES: CS(=O)(=O)CC[C@@H]1OCC[C@@]2(S(=O)(=O)c3ccc(F)c(F)c3)c3c(F)ccc(F)c3OC[C@@H]12
- IC50 (Gamma-secretase [2]): 1.4 nM
- IC50 (Gamma-secretase [3]): 14 nM
- IC50 (Gamma-secretase [1]): 31 nM

SMILES: CS(=O)(=O)CC[C@@H]1OCC[C@@]2(S(=O)(=O)c3ccc(Cl)cc3)c3c(F)ccc(F)c3OC[C@@H]12
- Selectivity ratio (Homo sapiens): 19
- IC50 (Gamma-secretase [2]): 1 nM
- IC50 (Gamma-secretase [3]): 4 nM
- IC50 (Gamma-secretase [1]): 1.3 nM

SMILES: CCS(=O)(=O)CC[C@@H]1OCC[C@@]2(S(=O)(=O)c3ccc(Cl)cc3)c3c(F)ccc(F)c3OC[C@@H]12
- IC50 (Gamma-secretase [2]): 2 nM
- IC50 (Gamma-secretase [3]): 5 nM
- IC50 (Gamma-secretase [1]): 3 nM

SMILES: COc1ccc(S(=O)(=O)[C@@]23CCO[C@@H](CCS(C)(=O)=O)[C@@H]2COc2c(F)ccc(F)c23)cc1
- IC50 (Gamma-secretase [1]): 360 nM

SMILES: O=S(=O)(CCO)CC[C@@H]1OCC[C@@]2(S(=O)(=O)c3ccc(Cl)cc3)c3c(F)ccc(F)c3OC[C@@H]12
- IC50 (Gamma-secretase [2]): 0.9 nM
- IC50 (Gamma-secretase [3]): 1.2 nM
- IC50 (Gamma-secretase [1]): 1 nM
- Kp at 6 h [4]: 0.1

SMILES: O=S(=O)(CC[C@@H]1OCC[C@@]2(S(=O)(=O)c3ccc(Cl)cc3)c3c(F)ccc(F)c3OC[C@@H]12)c1ncn[nH]1
- inhibition in vivo at 10 mg/kg (Mus musculus [5]): 30%
- IC50 (Gamma-secretase [2]): 4.7 nM
- IC50 (Gamma-secretase [3]): 8.9 nM
- IC50 (Gamma-secretase [1]): 2.1 nM

SMILES: CS(=O)(=O)CC[C@@H]1OCC[C@@]2(S(=O)(=O)c3ccc(C(F)(F)F)cc3)c3c(F)ccc(F)c3OC[C@@H]12
- Vd [6]: 6.1 L/kg
- Vd [7]: 8.9 L/kg
- Vd [8]: 6.6 L/kg
- clearance [9]: 6.5 mL/min/kg
- clearance [10]: 4.6 mL/min/kg
- clearance [11]: 40 mL/min/kg
- bioavailability [12]: 100%
- bioavailability [13]: 44%
- bioavailability [14]: 70%
- half-life [15]: 17 h
- half-life [16]: 17 h
- half-life [17]: 3.6 h
- Tmax [18]: 2.3 h
- Tmax [19]: 5.3 h
- Tmax [20]: 2 h
- Cmax [21]: 1500 nM
- Cmax [22]: 680 nM
- Cmax [23]: 810 nM
- AUC(0-inf) [24]: 46 µM·h
- AUC(0-inf) [25]: 3.5 µM·h
- AUC(0-inf) [26]: 18 µM·h
- IC50 [27]: > 10000 nM
- inhibition at 10 µM (hERG (KCNH2)): 31%
- IC50 (Gamma-secretase [28]): 31 nM
- ED50 (Rattus norvegicus [29]): 7.4 mg/kg
- ED50 (Rattus norvegicus [30]): 2.8 mg/kg
- IC50 (Gamma-secretase [2]): 3.5 nM
- IC50 (Gamma-secretase [3]): 11 nM
- IC50 (Gamma-secretase [1]): 15 nM
- ED50 (Mus musculus [31]): 7.7 mg/kg
- ED50 (Mus musculus [32]): 8 mg/kg
- ED50 (Rattus norvegicus [33]): 1.9 mg/kg

SMILES: CS(=O)(=O)CC[C@@H]1OCC[C@@]2(S(=O)(=O)c3ccc(C#N)cc3)c3c(F)ccc(F)c3OC[C@@H]12
- IC50 (Gamma-secretase [2]): 8.9 nM
- IC50 (Gamma-secretase [3]): 25 nM
- IC50 (Gamma-secretase [1]): 66 nM

SMILES: CS(=O)(=O)CC[C@@H]1OCC[C@@]2(S(=O)(=O)c3cc(F)cc(F)c3)c3c(F)ccc(F)c3OC[C@@H]12
- IC50 (Gamma-secretase [1]): 250 nM

SMILES: CS(=O)(=O)CC[C@@H]1OCC[C@@]2(S(=O)(=O)c3ccc(Br)cc3)c3c(F)ccc(F)c3OC[C@@H]12
- IC50 (Gamma-secretase [2]): 0.6 nM
- IC50 (Gamma-secretase [3]): 2.5 nM
- IC50 (Gamma-secretase [1]): 2.9 nM

SMILES: O=C(O)CS(=O)(=O)CC[C@@H]1OCC[C@@]2(S(=O)(=O)c3ccc(Cl)cc3)c3c(F)ccc(F)c3OC[C@@H]12
- inhibition in vivo at 10 mg/kg (Mus musculus [5]): 47%
- IC50 (Gamma-secretase [2]): 22 nM
- IC50 (Gamma-secretase [3]): 38 nM
- IC50 (Gamma-secretase [1]): 2.7 nM
- Kp at 6 h [4]: 0.1

SMILES: O=S(=O)(CC[C@@H]1OCC[C@@]2(S(=O)(=O)c3ccc(Cl)cc3)c3c(F)ccc(F)c3OC[C@@H]12)CC(F)(F)F
- IC50 (Gamma-secretase [2]): 6.4 nM
- IC50 (Gamma-secretase [3]): 22 nM
- IC50 (Gamma-secretase [1]): 7.3 nM

SMILES: O=S(=O)(CC[C@@H]1OCC[C@@]2(S(=O)(=O)c3ccc(Cl)cc3)c3c(F)ccc(F)c3OC[C@@H]12)C1CC1
- IC50 (Gamma-secretase [1]): 2.1 nM

SMILES: O=S(=O)(CC[C@@H]1OCC[C@@]2(S(=O)(=O)c3ccc(Cl)cc3)c3c(F)ccc(F)c3OC[C@@H]12)c1ncc[nH]1
- IC50 (Gamma-secretase [2]): 1.8 nM
- IC50 (Gamma-secretase [3]): 1.5 nM
- IC50 (Gamma-secretase [1]): 1.4 nM

SMILES: CCCS(=O)(=O)CC[C@@H]1OCC[C@@]2(S(=O)(=O)c3ccc(Cl)cc3)c3c(F)ccc(F)c3OC[C@@H]12
- IC50 (Gamma-secretase [2]): 5 nM
- IC50 (Gamma-secretase [3]): 11 nM
- IC50 (Gamma-secretase [1]): 6.8 nM
